# Assay results from patent US20100158842A1, “NATURAL SKIN WHITENER: 4-HYDROXY-OXINDOLE-3-ACETIC ACID” (SPECTRUM DYNAMICS LLC, priority 2008, published 2010).
# Legend:
# [1] = DPPH* free-radical scavenging assay; details: 100 microgram per milliliter in ethanol; FIG. 4
# Protocol: Purified Tasselin A has been assayed and determined its free-radical scavenging activity. FIG. 4 present typical results of standardized 1,1-diphenyl-2-picrylhydrazyl radical (DPPH*) reagent test as previously described (Bonina et al, 2002). This test was previously disclosed and employed on crude corn tassel alcoholic extracts (Wille J J: U.S. Pat. No. 7,399,439). Here we confirm that purified Tasselin A has potent antioxidant activity. A 1.0 mg/ml stock solution of purified Tasselin A in ethanol was diluted with anhydrous ethanol to a final concentration of 100 microgram per milliliter and assayed in the DPPH* free-radical scavenging assay.
# [2] = tested on: human forearm skin; experiment: Inhibition of skin irritation induced by 24-hour occlusion with benzalkonium chloride; assay type: in vivo; details: 0.01% (100 micrograms/milliliter) co-administered with 0.4% benzalkonium chloride, volar forearm, FIG. 5
# From the text: The anti-irritant activity of purified Tasselin A has been assessed by determining its ability to inhibit skin irritation induced by 24-hour occlusion of human forearm skin with a solution of 0.4% benzalkonium chloride (BC) with or without inclusion of 0.01% (100 micrograms/milliliter) of purified Tasselin A. FIG. 5 is a photograph of the volar surface of a subject forearm immediately after removal of the occlusive dressing. There are two circled skin areas: A) control site, and B) test site.
# [3] = tested on: mushroom tyrosinase enzyme; experiment: Anti-tyrosinase activity assay; assay type: biochemical; details: 150 microgram/ml, 30 minute test end-point; FIG. 7
# Protocol: For this purpose, a modified assay method of anti-tyrosinase activity described in the literature was employed (Chang T S and Tseng M J., Mar. Sci. Technol., 14: 190-193, 2006). The assay employs mushroom tyrosinase enzyme to enzymatically convert a colorless solution tyrosine to a black melanin product. The anti-tyrosinase activity is measured by the reduction of black color development in the presence of the inhibitor, which in this instance is Tasselin A. FIG. 7 is a graph showing the inhibiting effect of two different concentrations of purified Tasselin A on tyrosinase activity as 50% reduction at a concentration of 150 microgram/ml over the 30 minute test end-point.
# [4] = Solubility; assay type: physicochemical; details: water, methanol/ethanol
# From the text: There is also disclosed here a method of making a cosmetic ingredient with the chemical composition and structure of 4-hydroxy-oxindole-3-acetic acid. The chemical compound was identified in extracts of corn tassels. In particular, seasonally aromatic corn tassels were harvested as previously described in U.S. Pat. No. 7,399,493 with particular attention to harvesting the tassel at the peak time of aroma production. They were collected simply by shaking the tassels directly into collecting sacks conveyed to the laboratory where they are immersed directly into ice-cold absolute alcohol and extracted for 24-48 hours at 0-4° C. Crude alcohol extracts have a light green color and a fragrance reminiscent of bee's wax. The extract is further clarified low speed centrifugation followed by filtration through a 0.4 micron nitrocellulose filter and the resulting sterile solution stored at −20° C. until further needed or then concentrated by vacuum rotary evaporation to obtain a slightly viscous mass. This material served as the starting point for chemical analysis. Dilutions of the ice-cold crude extract was submitted to preliminary assessment of its anti-oxidant activity. High pressure liquid chromatography (HPLC) was employed to determine the principle phenolic components of the tassel extract. […]
# [5] = Storage stability of lyophilized powder; assay type: physicochemical; details: milligram quantities, under vacuum
# From the text: Given these physical properties, Tasselin A has been formulated in both lotion and cream as described in the Tables III, IV, and V below.
smiles,measurement,setting,value
"O=C(O)CC1C(=O)Nc2cccc(O)c21 (centres unmarked) [Tasselin A, 2,3-dihydro-4-hydroxy-2-oxo-1H-indole-3-acetic acid]",reduction in absorbance measured at 595 nm,[1],40%
same,"visual scoring of skin irritation (swelling, erythema) at test site",[2],no swelling or redness
same,reduction of tyrosinase activity,[3],50%
same,solubility,[4],both water and methanol/ethanol soluble
same,storage as dry powder,[5],successfully lyophilized and stored as a dry powder under vacuum for up to a year
